# Data reported in ChEMBL document CHEMBL6078713, “Synthesis and mechanistic studies of 4-aminoquinoline-Isatin molecular hybrids and Schiff's bases as promising antimicrobial agents” (Eur J Med Chem, 2025).
# Active and inactive are the calls of the source. The rule behind the calls is not given here.
# Columns and labels:
# Enterococcus faecalis [1] = assay: Antibacterial activity against Enterococcus faecalis MTCC 439 assessed as diameter of zone of inhibition at 500 ug/ml by agar disk diffusion method; assay type: functional; conditions: read-out: DIZ
# Bacillus subtilis [2] = assay: Antibacterial activity against Bacillus subtilis MTCC 736 assessed as diameter of zone of inhibition at 500 ug/ml by agar disk diffusion method; assay type: functional; conditions: read-out: DIZ
# Staphylococcus aureus [3] = assay: Antibacterial activity against Staphylococcus aureus MTCC 902 assessed as diameter of zone of inhibition at 500 ug/ml by agar disk diffusion method; assay type: functional; conditions: read-out: DIZ
# Pseudomonas aeruginosa = assay: Antibacterial activity against Pseudomonas aeruginosa MTCC 2453 assessed as diameter of zone of inhibition at 500 ug/ml by agar disk diffusion method; assay type: functional; conditions: read-out: DIZ
# Salmonella typhi [4] = assay: Antibacterial activity against Salmonella typhi assessed as diameter of zone of inhibition at 500 ug/ml by agar disk diffusion method; assay type: functional, Salmonella enterica subsp. enterica serovar Typhi; conditions: Salmonella enterica, read-out: DIZ
# Enterococcus faecalis [5] = assay: Antibacterial activity against Enterococcus faecalis MTCC 439 assessed as inhibition of bacterial growth incubated overnight by serial dilution based spectrophotometer; assay type: functional
# Bacillus subtilis [6] = assay: Antibacterial activity against Bacillus subtilis MTCC 736 assessed as inhibition of bacterial growth incubated overnight by serial dilution based spectrophotometer; assay type: functional
# Salmonella typhi [7] = assay: Antibacterial activity against Salmonella typhi assessed as inhibition of bacterial growth incubated overnight by serial dilution based spectrophotometer; assay type: functional, Salmonella enterica subsp. enterica serovar Typhi; conditions: Salmonella enterica
# Salmonella typhi [8] = assay: Synergistic antibacterial activity against Salmonella typhi assessed as inhibition of bacterial growth incubated overnight in presence of LT-SB5 by serial dilution based spectrophotometer; conditions: Salmonella enterica
# Salmonella typhi [9] = assay: Synergistic antibacterial activity against Salmonella typhi assessed as inhibition of bacterial growth incubated overnight in presence of LT-SB7 by serial dilution based spectrophotometer; conditions: Salmonella enterica
# Salmonella typhi [10] = assay: Synergistic antibacterial activity against Salmonella typhi assessed as inhibition of bacterial growth incubated overnight in presence of LT-SB23 by serial dilution based spectrophotometer; conditions: Salmonella enterica
# Staphylococcus aureus [11] = assay: Bacteriostatic activity against Staphylococcus aureus MTCC 902 assessed as reduction in bacterial growth measured upto 24 hrs by absorbance based assay; assay type: functional, organism-based
# Escherichia coli = assay: microbe, parasite or virus in culture; conditions: MTCC 443
# Description: Synergistic antibacterial activity against Escherichia coli MTCC 443 assessed as inhibition of bacterial growth incubated overnight in presence of SB5 by serial dilution based spectrophotometer
# Enterococcus faecalis [12] = assay: microbe, parasite or virus in culture; conditions: MTCC 439
# Description: Synergistic antibacterial activity against Enterococcus faecalis MTCC 439 assessed as inhibition of bacterial growth incubated overnight in presence of LT-SB5 by serial dilution based spectrophotometer
# Enterococcus faecalis [13] = assay: microbe, parasite or virus in culture; conditions: MTCC 439; remark: listed apart in the source
# Description: Synergistic antibacterial activity against Enterococcus faecalis MTCC 439 assessed as inhibition of bacterial growth incubated overnight in presence of LT-SB7 by serial dilution based spectrophotometer
# Enterococcus faecalis [14] = assay: microbe, parasite or virus in culture; conditions: MTCC 439; remark: listed apart in the source
# Description: Synergistic antibacterial activity against Enterococcus faecalis MTCC 439 assessed as inhibition of bacterial growth incubated overnight in presence of LT-SB23 by serial dilution based spectrophotometer
# Enterococcus faecalis [15] = assay: microbe, parasite or virus in culture; conditions: MTCC 439; remark: listed apart in the source
# Description: Synergistic antibacterial activity against Enterococcus faecalis MTCC 439 assessed as inhibition of bacterial growth incubated overnight in presence of SB5 by serial dilution based spectrophotometer
# Bacillus subtilis [16] = assay: microbe, parasite or virus in culture; conditions: MTCC 736
# Description: Synergistic antibacterial activity against Bacillus subtilis MTCC 736 assessed as inhibition of bacterial growth incubated overnight in presence of LT-SB5 by serial dilution based spectrophotometer
# Bacillus subtilis [17] = assay: microbe, parasite or virus in culture; conditions: MTCC 736; remark: listed apart in the source
# Description: Synergistic antibacterial activity against Bacillus subtilis MTCC 736 assessed as inhibition of bacterial growth incubated overnight in presence of LT-SB7 by serial dilution based spectrophotometer
# Bacillus subtilis [18] = assay: microbe, parasite or virus in culture; conditions: MTCC 736; remark: listed apart in the source
# Description: Synergistic antibacterial activity against Bacillus subtilis MTCC 736 assessed as inhibition of bacterial growth incubated overnight in presence of LT-SB23 by serial dilution based spectrophotometer
# Bacillus subtilis [19] = assay: microbe, parasite or virus in culture; conditions: MTCC 736; remark: listed apart in the source
# Description: Synergistic antibacterial activity against Bacillus subtilis MTCC 736 assessed as inhibition of bacterial growth incubated overnight in presence of SB9 by serial dilution based spectrophotometer
smiles,measurement,setting,value
O=C(O)c1cn(C2CC2)c2cc(N3CCNCC3)c(F)cc2c1=O [CIPROFLOXACIN],zone of inhibition at 500 µg/mL,Enterococcus faecalis [1],18 mm
same,zone of inhibition at 500 µg/mL,Bacillus subtilis [2],22 mm
same,zone of inhibition at 500 µg/mL,Staphylococcus aureus [3],19 mm
same,zone of inhibition at 500 µg/mL,Pseudomonas aeruginosa,24 mm
same,zone of inhibition at 500 µg/mL,Salmonella typhi [4],18 mm
same,MIC,Enterococcus faecalis [5],0.5 µg/mL
same,MIC,Bacillus subtilis [6],1 µg/mL
same,MIC,Salmonella typhi [7],0.5 µg/mL
same,MIC,Salmonella typhi [8],0.031 µg/mL
same,MIC,Salmonella typhi [9],0.031 µg/mL
same,MIC,Salmonella typhi [10],0.031 µg/mL
same,Activity,Staphylococcus aureus [11],Active
same,MIC,Escherichia coli,0.062 µg/mL
same,MIC,Enterococcus faecalis [12],0.5 µg/mL
same,MIC,Enterococcus faecalis [13],0.125 µg/mL
same,MIC,Enterococcus faecalis [14],0.125 µg/mL
same,MIC,Enterococcus faecalis [15],0.5 µg/mL
same,MIC,Bacillus subtilis [16],1 µg/mL
same,MIC,Bacillus subtilis [17],0.25 µg/mL
same,MIC,Bacillus subtilis [18],1 µg/mL
same,MIC,Bacillus subtilis [19],0.5 µg/mL
